Assay results from patent US20230357179A1, “RAF KINASE INHIBITORS AND METHODS OF USE THEREOF” (Deciphera Pharmaceuticals, LLC, priority 2021, published 2023).

Tests used:
A-Raf kinase = biological target: T1, A-Raf kinase (Homo sapiens, UniProt P10398, Y301D/Y302D); experiment: Biochemical assay for A-Raf.1 (coupled pyruvate kinase/lactate dehydrogenase); conditions: read-out: ARAF.1 IC50
T1 construct: purchased Sigma
Outline: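 IC50 values came from four-parameter sigmoidal fits of percent inhibition, using rates over the 4 to 5 h window of continuous A340 readings (6 h, 30° C). The coupled PK/LDH system tracked NADH oxidation during 5.55 nM A-Raf activity on 30.1 nM MEK at 1 mM ATP, buffer pH 7.5.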

A375 cells = experiment: A375 cell proliferation assay (1), resazurin, 96-well; assay type: cell-based; conditions: Homo sapiens, A-375, inhibition of cell proliferation
Outline: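 Viability was read by resazurin fluorescence at 540 nm excitation and 600 nm emission, using a 440 μM solution added for 5–6 h at the end of culture. IC50 came from the curve fit.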

WM3928 cells = experiment: WM3928 cell proliferation assay (1), resazurin, 96-well; assay type: cell-based; conditions: inhibition of cell proliferation
Description: WM3928 Cell Proliferation Assay (1)
WM3928 cells (#WM3928-01-0001) are obtained from Rockland Immunochemicals Inc (Gilbertsville, PA). Briefly, cells were grown in MCDB 153 medium (Sigma, #M7403, St. Louis, MO) supplemented with 20% Leibovitz's L-15 (ThermoFisher #11415-064, Waltham, MA), 2% heat inactivated fetal bovine serum (ThermoFisher, #A3840001, Waltham, MA), 5 μg/mL Insulin (Bovine Pancreas) (Sigma, #I0516, St. Louis, MO), 1.68 mM Calcium Chloride (Sigma, #C-34006, St. Louis, MO) and 1% Penicillin/Streptomycin/L-Glutamine (ThermoFisher #10378016, Waltham, MA) at 37° C., 5% CO2, and 95% humidity. Cells are expanded until reaching 70-95% confluency at which point they are subcultured or harvested for assay use. A serial dilution of test compound is dispensed into a 96-well black clear bottom plate in triplicate. Three thousand cells are added per well in 200 μL complete growth medium in the 96-well plate. Plates are incubated for 67-72 hours at 37° C., 5% CO2, and 95% humidity. At the end of the incubation, 40 μL of a 440 μM solution of resazurin (Sigma, #199303, St. Louis, MO) in PBS is added to each well of the plate and plates are incubated for an additional 6-7 hours at 37° C., 5% CO2, and 95% humidity. Plates are read on a Synergy2 or equivalent reader (Biotek, Winooski VT) using an excitation of 540 nm and an emission of 600 nm. Data is analyzed using Prism software (GraphPad, San Diego, CA) to calculate IC50 values.

Miapaca-2 cells = experiment: MiaPaca-2 cell proliferation assay (1), resazurin, 96-well; assay type: cell-based; conditions: Homo sapiens, MIA PaCa-2, inhibition of cell proliferation
Outline: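 Three thousand cells per well in DMEM with 10% FBS and 2.5% horse serum exposed to serially diluted compound in triplicate for 67-72 h at 37 °C, 5% CO2. Viability by resazurin (additional 5-6 h), fluorescence ex 540/em 600 nm; IC50 calculated.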

T1 sequence (P10398 with tags, fused parts or gaps Y301D/Y302D): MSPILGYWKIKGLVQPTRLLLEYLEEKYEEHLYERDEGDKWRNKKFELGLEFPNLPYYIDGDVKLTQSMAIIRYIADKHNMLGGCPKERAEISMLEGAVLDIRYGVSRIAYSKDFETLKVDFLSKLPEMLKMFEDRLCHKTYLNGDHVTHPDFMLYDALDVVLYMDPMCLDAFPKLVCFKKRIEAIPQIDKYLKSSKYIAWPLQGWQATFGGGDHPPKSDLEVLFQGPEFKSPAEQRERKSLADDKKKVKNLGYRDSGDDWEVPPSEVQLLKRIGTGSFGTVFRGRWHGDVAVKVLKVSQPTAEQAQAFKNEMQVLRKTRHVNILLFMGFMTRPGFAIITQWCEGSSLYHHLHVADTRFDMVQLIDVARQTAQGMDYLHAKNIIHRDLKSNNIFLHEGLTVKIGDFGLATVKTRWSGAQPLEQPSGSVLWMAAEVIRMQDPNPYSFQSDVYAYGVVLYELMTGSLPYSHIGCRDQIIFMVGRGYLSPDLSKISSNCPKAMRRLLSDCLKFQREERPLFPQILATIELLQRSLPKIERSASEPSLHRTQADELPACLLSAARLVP

Row | IC50 (A-Raf kinase) [nM] | IC50 (A375 cells) [nM] | IC50 (Miapaca-2 cells) [nM] | Structure (SMILES) | IC50 (WM3928 cells) [nM]
1 | 100 to 500 | ≤ 100 | 500 to 1000 | Cc1ccc(NC(=O)N2CC[C@H](C(C)C)C2)cc1-c1cncc(-c2cc(NC(=O)C3CC3)ncn2)c1 [Example 221] | ≤ 100
2 | > 1000 | 1000 to 10000 | 1000 to 10000 | Cc1cc(F)c(NC(=O)NCCC2(C)CC2)cc1-c1ccnc(-c2ccnc3c2CC(=O)N3)c1 [Example 79] | 100 to 500
3 | > 1000 | 1000 to 10000 | 1000 to 10000 | Cc1cc(F)c(NC(=O)NCCC2(C)CC2)cc1-c1cccc(-c2ccnc(NC(=O)C3CC3)c2)c1 [Example 64] | 100 to 500
4 | > 1000 | 1000 to 10000 | 1000 to 10000 | Cc1cc(F)c(NC(=O)NCCC2(C)CC2)cc1-c1cc(OCC(C)(C)O)nc(-c2ccncc2)c1 [Example 34] | 100 to 500
5 | > 1000 | 100 to 500 | 1000 to 10000 | Cc1ccc(NC(=O)N2CC[C@H](C(F)(F)F)C2)cc1-c1cccc(-c2cc(NC(=O)C3CC3)ncn2)c1 [Example 200] | ≤ 100
6 | > 1000 | ≤ 100 | 1000 to 10000 | Cc1cc(F)c(NC(=O)NC2CC(C)(C)C2)cc1-c1cc(OCCO)nc(-c2ccnc(NC(=O)C3CC3)c2)c1 [Example 80] | ≤ 100
7 | 100 to 500 | 100 to 500 | 1000 to 10000 | Cc1cc(F)c(NC(=O)N2CC[C@H](C(F)(F)F)C2)cc1-c1cncc(-c2cc(NC(=O)C3CC3)ncn2)c1 [Example 216] | ≤ 100
8 | > 1000 | 1000 to 10000 |  | Cc1ccc(NC(=O)N2CCC(CC(F)(F)F)C2)cc1-c1cncc(-c2cc(N)ncn2)c1 (stereo not shown) [Example 207] | 500 to 1000
9 | > 1000 | 1000 to 10000 | 1000 to 10000 | CNC(=O)c1cc(-c2cncc(-c3cc(NC(=O)N4CC[C@H](C(F)(F)F)C4)c(F)cc3C)c2)ccn1 [Example 214] | 1000 to 10000
10 | > 1000 | ≤ 100 | 1000 to 10000 | COC(=O)Nc1cc(-c2cc(-c3cc(NC(=O)NCCC4(C)CC4)c(F)cc3C)cc(OCCO)n2)ccn1 [Example 77] | ≤ 100
11 | > 1000 | 500 to 1000 |  | COC(=O)Nc1cc(-c2cncc(-c3cc(NC(=O)N4CCCCC4)ccc3C)c2)ccn1 [Example 208] | 500 to 1000
12 | 500 to 1000 | 100 to 500 | 1000 to 10000 | Cc1ccc(NC(=O)N2CC[C@H](C(F)(F)F)C2)cc1-c1cncc(-c2cc(NC(=O)C3CC3)ncn2)c1 [Example 195] | ≤ 100
13 | > 1000 | 1000 to 10000 | 1000 to 10000 | Cc1ncc(NC(=O)NCCC2(C)CC2)cc1-c1nccc(-c2ccnc(NC(=O)C3CC3)c2)n1 [Example 81] | 500 to 1000
14 | > 1000 | 100 to 500 |  | COC(=O)Nc1cc(-c2cc(-c3cc(NC(=O)N4CCC(C(F)(F)F)C4)ccc3C)cc(OCCO)n2)ccn1 (stereo not shown) [Example 222] | ≤ 100
15 | 500 to 1000 | 100 to 500 |  | Cc1ccc(NC(=O)N2CC[C@@H](C(F)(F)F)C2)cc1-c1cncc(-c2cc(NC(=O)C3CC3)ncn2)c1 [Example 210] | 100 to 500
16 | > 1000 | 1000 to 10000 |  | COC(=O)Nc1cc(-c2cncc(-c3cc(NC(=O)N4CCCC4)ccc3C)c2)ccn1 [Example 213] | 1000 to 10000
17 | > 1000 | 1000 to 10000 |  | COC(=O)Nc1cc(-c2cc(-c3cc(NC(=O)N4CC[C@H](C(F)(F)F)C4)ccc3C)nc(C)n2)ccn1 [Example 223] | 1000 to 10000
18 | > 1000 | 1000 to 10000 | 1000 to 10000 | Cc1cc(F)c(NC(=O)NCCC2(C)CC2)cc1-c1cccc(-c2cc(NC(=O)C3CC3)ncn2)c1 [Example 65] | 100 to 500

Row | IC50 (A-Raf kinase) [nM] | IC50 (A375 cells) [nM] | IC50 (Miapaca-2 cells) [nM] | Structure (SMILES) | IC50 (WM3928 cells) [nM]
19 | > 1000 | 1000 to 10000 |  | Cc1ccc(NC(=O)N2CCC(F)(F)C2)cc1-c1cncc(-c2cc(NC(=O)C3CC3)ncn2)c1 [Example 209] | 1000 to 10000
20 | 100 to 500 | ≤ 100 | 100 to 500 | CC(=O)Nc1cc(-c2cc(-c3cc(NC(=O)NCCC4(C)CC4)c(F)cc3C)cc(OCCO)n2)ccn1 [Example 33] | ≤ 100
21 | > 1000 | 1000 to 10000 | 1000 to 10000 | Cc1cc(F)c(NC(=O)NCCC(C)(C)C#N)cc1-c1cccc(-c2ccnc(NC(=O)C3CC3)c2)c1 [Example 66] | 100 to 500
22 | > 1000 | 1000 to 10000 |  | COC(=O)Nc1cc(-c2cncc(-c3cc(NC(=O)N4CCCCCC4)ccc3C)c2)ccn1 [Example 202] | 1000 to 10000
23 | > 1000 | 1000 to 10000 | 1000 to 10000 | COC(C)(C)CCNC(=O)Nc1cnc(C)c(-c2nccc(-c3ccnc(NC(=O)C4CC4)c3)n2)c1 [Example 82] | 1000 to 10000
24 | 500 to 1000 | 100 to 500 | 1000 to 10000 | Cc1ccc(NC(=O)N2CCC(C(F)(F)F)C2)cc1-c1cccc(-c2cc(NC(=O)C3CC3)ncn2)c1 (stereo not shown) [Example 73] | ≤ 100
25 | 100 to 500 | ≤ 100 | 1000 to 10000 | Cc1cc(F)c(NC(=O)NCCC2(C)CC2)cc1-c1cc(OCCO)nc(-c2ccnc(NC(=O)C3CC3)c2)c1 [Example 76] | ≤ 100
26 | > 1000 | 1000 to 10000 | 1000 to 10000 | Cc1ncc(NC(=O)NCCC(C)(C)F)cc1-c1ccnc(-c2ccnc(NC(=O)C3CC3)c2)c1 [Example 75] | 500 to 1000
27 | > 1000 | 500 to 1000 |  | COC(=O)Nc1cc(-c2cncc(-c3cc(NC(=O)N4CC[C@H](C(F)(F)F)C4)ccc3C)c2)ccn1 [Example 211] | 100 to 500
28 | 500 to 1000 | 1000 to 10000 | 1000 to 10000 | COC(C)(C)CCNC(=O)Nc1cc(-c2nccc(-c3ccnc(NC(=O)C4CC4)c3)n2)c(C)cc1F [Example 83] | 100 to 500
29 | 100 to 500 | ≤ 100 | 500 to 1000 | Cc1ccc(NC(=O)N2CC[C@@H](C(C)C)C2)cc1-c1cncc(-c2cc(NC(=O)C3CC3)ncn2)c1 [Example 217] | ≤ 100
30 | > 1000 | 1000 to 10000 | 1000 to 10000 | Cc1cc(F)c(NC(=O)NCCC(C)(C)C#N)cc1-c1cc(N2CCOCC2)nc(N2CCOCC2)c1 [Example 22] | 1000 to 10000
31 | 500 to 1000 | 100 to 500 |  | Cc1ccc(NC(=O)N2CC[C@H](C(F)(F)F)C2)cc1-c1cncc(-c2ccnc(NC(=O)C3CC3)c2)c1 [Example 197] | 100 to 500
32 | 100 to 500 | 1000 to 10000 | 1000 to 10000 | Cc1cc(F)c(NC(=O)NCCC(C)(C)C#N)cc1-c1cccc(-c2cc(NC(=O)C3CC3)ncn2)c1 [Example 67] | 1000 to 10000
33 | > 1000 | 500 to 1000 | 1000 to 10000 | Cc1cc(F)c(NC(=O)NCCC2(C(F)(F)F)CC2)cc1-c1cc(N2CCOCC2)nc(N2CCOCC2)c1 [Example 23] | 100 to 500
34 | > 1000 | 1000 to 10000 |  | Cc1ccc(NC(=O)N2CC[C@@H](C(F)(F)F)C2)cc1-c1cncc(-c2ccnc(NC(=O)C3CC3)c2)c1 [Example 196] | 500 to 1000
35 | > 1000 | 500 to 1000 | 1000 to 10000 | Cc1ccc(NC(=O)N2CC[C@@H](C(F)(F)F)C2)cc1-c1cccc(-c2cc(NC(=O)C3CC3)ncn2)c1 [Example 201] | 100 to 500
36 | > 1000 | 1000 to 10000 | 1000 to 10000 | COC1(CCNC(=O)Nc2cnc(C)c(-c3cccc(-c4cc(NC(=O)C5CC5)ncn4)c3)c2)CC1 [Example 84] | 500 to 1000
